Results: patent US7842808B2, “Anti-migraine spirocycles” (Bristol-Myers Squibb Company, priority 2002, dated 2010)

Assays:
[1] = target: T1, human CGRP receptor (SK-N-MC cells) (Homo sapiens, UniProt O60894+Q16602); assay: Cyclic AMP Assay, functional antagonism of CGRP-induced cyclic AMP formation; type: cell-based; conditions: SK-N-MC cells, 0.3 nM CGRP; read-out: cAMP Function IC50
T1 construct: SK-N-MC cells that endogenously express the human CGRP receptor; endogenous in cells; host or cells: SK-N-MC cells
Method in brief: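 SK-N-MC cells, which endogenously express human CGRP receptor, stimulated with 0.3 nM CGRP with or without compound for 30 min at room temperature. Cellular cAMP extracted by lysis and quantified by SPA radioimmunoassay; IC50 from inhibition of CGRP-induced cAMP.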

[2] = target: T1, human CGRP receptor (SK-N-MC cells); assay: Schild analysis of CGRP stimulated cAMP production; type: cell-based; conditions: for slope: Schild plot slope
Method: Functional Antagonism. Antagonism of the compounds of invention was determined by measuring the formation of cyclic AMP (adenosine 3′5′-cyclic monophosphate) in SK-N-MC cells that endogenously express the human CGRP receptor. CGRP receptor complex is coupled with Gs protein and CGRP binding to this complex leads to the cyclic AMP production via Gs—dependent activation of an adenylate cyclase (Juaneda C et al., TiPS, 2000; 21:432-438; incorporated by reference herein). Consequently, CGRP receptor antagonists inhibit CGRP-induced cyclic AMP formation in SK-N-MC cells (Doods H et al., Br J Pharmacol, 2000; 129(3):420-423); incorporated by reference herein). For cyclic AMP measurements SK-N-MC cells were incubated with 0.3 nM CGRP alone or in the presence of various concentrations of the compounds of invention for 30 min at room temperature. Compounds of invention were pre-incubated with SK-N-MC cells for 15 min before the addition of CGRP to allow receptor occupancy (Edvinsson et al., Eur J Pharmacol, 2001, 415:39-44; incorporated by reference herein). Cyclic AMP was extracted using the lysis reagent and its concentration was determined by radioimmunoassay using RPA559 cAMP SPA Direct Screening Assay Kit (Amersham Pharmacia Biotech). IC50 values were calculated using Excel fit.
Schild Analysis. Schild analysis can be used to characterize the nature of antagonism of the compounds of invention. The dose response of CGRP stimulated cAMP production was generated either with CGRP alone, or in the presence of various concentrations of compounds of invention. The antagonist dose is plotted as X against the dose ratio (defined as IC50 of agonist with the presence of the compounds divided by the IC50 of the agonist alone) minus 1 as Y. Linear regression was then performed with both X and Y axis log-transformed. […] Kb is the dissociation constant of the antagonist.

T1 sequence (Q16602 23-461): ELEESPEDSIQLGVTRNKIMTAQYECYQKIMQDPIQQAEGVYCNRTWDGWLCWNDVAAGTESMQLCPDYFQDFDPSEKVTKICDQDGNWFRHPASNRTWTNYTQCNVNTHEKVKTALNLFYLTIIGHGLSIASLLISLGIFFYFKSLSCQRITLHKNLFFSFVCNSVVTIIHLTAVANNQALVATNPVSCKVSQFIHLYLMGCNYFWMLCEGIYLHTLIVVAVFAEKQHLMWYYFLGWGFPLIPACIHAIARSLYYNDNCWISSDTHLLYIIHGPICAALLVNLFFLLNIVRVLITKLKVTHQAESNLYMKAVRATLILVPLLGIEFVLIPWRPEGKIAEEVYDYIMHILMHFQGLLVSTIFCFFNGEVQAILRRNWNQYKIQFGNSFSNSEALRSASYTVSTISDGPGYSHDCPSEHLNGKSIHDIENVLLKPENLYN
T1 sequence (O60894 27-148): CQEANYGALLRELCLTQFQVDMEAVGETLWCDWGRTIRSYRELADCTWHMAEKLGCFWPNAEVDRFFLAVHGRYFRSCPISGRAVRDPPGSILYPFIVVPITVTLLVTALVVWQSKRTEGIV

Cc1cc(CC(NC(=O)N2CCC(N3Cc4ccccc4NC3=O)CC2)C(=O)N2CCC(N3CCCCC3)CC2)cc2cn[nH]c12 (racemic) [Example 16, (±)-4-(2-Oxo-1,4-dihydro-2H-quinazolin-3-yl)-piperidine-1-carboxylic acid[2-[1,4′]bipiperidinyl-1′-yl-1-(7-methyl-1H-indazol-5-ylmethyl)-2-oxo-ethyl]-amide] gave an IC50 [1] of under 10 nM and a slope [2] of 1.3.

With Cc1cc(CC(CC(=O)N2CCC(N3Cc4ccccc4NC3=O)CC2)C(=O)N2CCC(N3CCCCC3)CC2)cc2cn[nH]c12 (racemic) [Example 69, (±)-1-[1,4′]Bipiperidinyl-1′-yl-2-(7-methyl-1H-indazol-5-ylmethyl)-4-[4-(2-oxo-1,4-dihydro-2H-quinazolin-3-yl)-piperidin-1-yl]-butane-1,4-dione] the IC50 [1] was under 10 nM, the Kb ([2]; Schild analysis, dissociation constant of the antagonist, read-out: Kb) was 0.016 nM and the slope [2] was 1.
